Data published in the supplement of paper PMC9386025.

Experiments:
Assay in all cases: drug sensitivity score (DSS) (DSS (dimensionless)); higher = more sensitive (stronger drug response)
[1] = tested on: FIMM-PDC1 (patient-derived ovarian cancer cells); details: genetic perturbation: none (patient-derived cell culture)
Outline: (§1)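 Ovarian cancer cell lines, after at least three days of shRNA induction with 100 ng/ml doxycycline, and patient-derived cultures were plated at 1 000 – 1 500 cells per well into 384-well plates pre-loaded with drugs at five concentrations spanning a 10,000-fold range. Plates were then kept for three days at 37 °C and 5.0 % CO2. Viability was measured as CellTiter-Glo luminescence on a PHERAstar FS, and each drug's dose-response curve was reduced to a drug sensitivity score computed by a previously described method.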

[2] = tested on: OVSAHO
Outline: as §1

[3] = tested on: FIMM-PDC5 (patient-derived ovarian cancer cells); details: genetic perturbation: none (patient-derived cell culture)
Outline: as §1

[4] = tested on: Kuramochi
Outline: as §1

[5] = tested on: FIMM-PDC6 (patient-derived ovarian cancer cells); details: genetic perturbation: none (patient-derived cell culture)
Outline: as §1

[6] = tested on: FIMM-PDC4 (patient-derived ovarian cancer cells); details: genetic perturbation: none (patient-derived cell culture)
Outline: as §1

[7] = tested on: FIMM-PDC7 (patient-derived ovarian cancer cells); details: genetic perturbation: none (patient-derived cell culture)
Outline: as §1

[8] = tested on: JHOS2
Outline: as §1

[9] = tested on: FIMM-PDC3 (patient-derived ovarian cancer cells); details: genetic perturbation: none (patient-derived cell culture)
Outline: as §1

[10] = genetic perturbation: DOX-induced PTK7 shRNA knockdown
[11] = genetic perturbation: DOX-induced control shRNA

Row | Structure (SMILES) | drug sensitivity score [1] | drug sensitivity score [2, 10] | drug sensitivity score [2, 11] | drug sensitivity score [3] | drug sensitivity score [4, 10] | drug sensitivity score [4, 11] | drug sensitivity score [5] | drug sensitivity score [6] | drug sensitivity score [7] | drug sensitivity score [8, 10] | drug sensitivity score [8, 11] | drug sensitivity score [9]
1 | C=C1C[C@@H]2CC[C@@]34C[C@H]5O[C@H]6[C@@H](O3)[C@H]3O[C@H](CC[C@@H]3O[C@H]6[C@H]5O4)CC(=O)C[C@@H]3[C@@H](OC)[C@@H](C[C@H](O)CN)O[C@H]3C[C@H]3O[C@@H](CC[C@@H]1O2)C[C@@H](C)C3=C [Eribulin] | 15.9 | 18.6 | 15.3 | 25.5 | 18.6 | 5.7 | 12.3 | 21.1 | 12.2 | 19 | 11.7 | 20.7
2 | C#Cc1cccc(Nc2ncnc3cc(OCCOC)c(OCCOC)cc23)c1 [Erlotinib] | 3.3 | 15.1 | 2.4 | 17.2 | 1.5 | 3 | 12.1 | 12 | 10 | 1.2 | 3.5 | 11.3
3 | COc1cc([C@@H]2c3cc4c(cc3[C@@H](O[C@@H]3O[C@@H]5CO[C@@H](C)O[C@H]5[C@H](O)[C@H]3O)[C@H]3COC(=O)[C@H]23)OCO4)cc(OC)c1O [Etoposide] | 2.55 | 2.7 | < 0 | 1.9 | 0.5 | 2 | 2.9 | 1.8 | 1 | 4.7 | 2.1 | 4.8
4 | CO[C@H]1C[C@@H]2CC[C@@H](C)[C@@](O)(O2)C(=O)C(=O)N2CCCC[C@H]2C(=O)O[C@H]([C@H](C)C[C@@H]2CC[C@@H](OCCO)[C@H](OC)C2)CC(=O)[C@H](C)/C=C(\C)[C@@H](O)[C@@H](OC)C(=O)[C@H](C)C[C@H](C)/C=C/C=C/C=C/1C [Everolimus] | < 0 | 0.9 | 6.2 | 8.3 | 4.1 | 2.2 | < 0 | 5.3 | 0.4 | < 0 | 3 | 2.7
5 | CCn1c(=O)c(-c2ccc(Cl)cc2Cl)cc2cnc(Nc3ccc(N4CCNCC4)c(F)c3)nc21 [FRAX486] | 4.5 | 10.8 | 4.8 | 14.7 | 3.7 | 7.6 | 9.7 | 9.3 | 6.5 | 4.5 | 8 | 6.5
6 | Cc1cnc(Nc2ccc(OCCN3CCCC3)cc2)nc1Nc1cccc(S(=O)(=O)NC(C)(C)C)c1 [Fedratinib] | 3.65 | 7.2 | 8.8 | 10.7 | 8.8 | 8.7 | 3 | 7 | 2.9 | 8.5 | 9.1 | 4.3
7 | CON(C)C(=O)N1N=C(c2cc(F)ccc2F)S[C@@]1(CCCN)c1ccccc1 [Filanesib] | 6.65 | 7.8 | 6.8 | 17.4 | 10.3 | 1.1 | 6.6 | 12.3 | 2.9 | 9.2 | 3 | 10.7
8 | CCCCCCCCc1ccc(CCC(N)(CO)CO)cc1 [Fingolimod] | 5.8 | 6.4 | 6.1 | 8.3 | 7.4 | 5 | 5.7 | 7.2 | 7 | 7.1 | 5.3 | 5.8
9 | O=c1[nH]c(=O)n([C@H]2C[C@H](O)[C@@H](CO)O2)cc1F [Floxuridine] | 6.7 | 4 | 6.6 | 3.5 | 8.25 | 14.1 | 2.3 | 0.1 | 3.5 | < 0 | 0.6 | 3.7
10 | O=C(NOCCO)c1ccc2cncn2c1Nc1ccc(I)cc1F [GDC-0623] | < 0 | 0.4 | 1.5 | 6.9 | 1.4 | 1.5 | < 0 | 7.4 | 9 | < 0 | 10 | 1.8
11 | CCOC(=O)CCNc1cc(N2CCc3ccccc3CC2)nc(-c2ccccn2)n1 [GSK-J4] | 0.2 | < 0 | 11.7 | < 0 | 5.3 | 7.4 | < 0 | < 0 | 0.3 | 0.7 | 2.2 | < 0
12 | Cc1cc(Nc2cc(CN3CCOCC3)c3nc(C)c(Cc4ccc(Cl)cc4F)n3n2)n[nH]1 [Gandotinib] | 5.25 | 6.6 | 5.1 | 8.6 | 5.2 | 5.6 | 4.6 | 7.4 | 7.2 | 7 | 2.7 | 7.1
13 | CC(C)c1cc(-c2n[nH]c(=O)n2-c2ccc3c(ccn3C)c2)c(O)cc1O [Ganetespib] | 13.4 | < 0 | 10.8 | 14.3 | 11.1 | 1.9 | 13.6 | 19.5 | 14 | 13.7 | 12.5 | 12.9
14 | CN(C)C1CCN(C(=O)c2ccc(NC(=O)Nc3ccc(-c4nc(N5CCOCC5)nc(N5CCOCC5)n4)cc3)cc2)CC1 [Gedatolisib] | 10.5 | 12.7 | 13.2 | 16.9 | 11.3 | 10.8 | 16.9 | 15.7 | 10.7 | 6.9 | 11.7 | 9
15 | COc1cc2ncnc(Nc3ccc(F)c(Cl)c3)c2cc1OCCCN1CCOCC1 [Gefitinib] | 3.4 | 7.7 | 4.1 | 18.6 | 4.3 | 3.3 | 13 | 15.2 | 10.7 | 3.5 | 3.5 | 10.9
16 | Nc1ccn([C@@H]2O[C@H](CO)[C@@H](O)C2(F)F)c(=O)n1 [Gemcitabine] | 5.15 | 6.1 | 4 | 21.8 | < 0 | 0.8 | 14.2 | 9.8 | 13.3 | 19.5 | 7.1 | 9.4
17 | CCN(CC)Cc1ccc2cc(COC(=O)Nc3ccc(C(=O)NO)cc3)ccc2c1 [Givinostat] | 5.5 | 7.6 | 6.9 | 7.2 | 8.55 | 4.8 | 5.8 | 0.9 | 2.1 | 6 | 5.7 | 6.4

Row | Structure (SMILES) | drug sensitivity score [1] | drug sensitivity score [2, 10] | drug sensitivity score [2, 11] | drug sensitivity score [3] | drug sensitivity score [4, 10] | drug sensitivity score [4, 11] | drug sensitivity score [5] | drug sensitivity score [6] | drug sensitivity score [7] | drug sensitivity score [8, 10] | drug sensitivity score [8, 11] | drug sensitivity score [9]
18 | COc1cc2c(cc1-c1c(C)noc1C)ncc1[nH]c(=O)n([C@H](C)c3ccccn3)c12 [I-BET151] | 3.15 | 5.7 | 10.3 | 8.9 | 10.6 | 3.7 | 5.9 | 3.9 | 9.9 | 8.4 | 6.2 | 4.5
19 | C=CC(=O)N1CCC[C@@H](n2nc(-c3ccc(Oc4ccccc4)cc3)c3c(N)ncnc32)C1 [Ibrutinib] | 0.35 | 2.9 | 2.6 | 10.1 | 2.2 | 1.1 | 6.4 | 7.7 | 2.5 | 0.6 | < 0 | 5.6
20 | C#Cc1cccc(Nc2ncnc3cc4c(cc23)OCCOCCOCCO4)c1 [Icotinib] | 0.8 | 0.8 | 0.5 | 12.7 | 0.6 | 1.6 | 6.1 | 10.5 | 5.3 | < 0 | 1 | 8.6
21 | CC(=O)[C@]1(O)Cc2c(O)c3c(c(O)c2[C@@H](O[C@H]2C[C@H](N)[C@H](O)[C@H](C)O2)C1)C(=O)c1ccccc1C3=O [Idarubicin] | 5.1 | 6.8 | 4.8 | 8.7 | 5.75 | 6 | 5.7 | 8.2 | 8.8 | 7.2 | 6.9 | 8.1
22 | COc1cc(C(=O)O)ccc1NC(=O)[C@@H]1N[C@@H](CC(C)(C)C)[C@](C#N)(c2ccc(Cl)cc2F)[C@H]1c1cccc(Cl)c1F [Idasanutlin] | 0.5 | 1.1 | < 0 | 22.5 | 0.95 | < 0 | 15.6 | 5 | 15.7 | < 0 | < 0 | 5.2
23 | O=C(Nc1ccncc1)C(=O)c1cn(Cc2ccc(Cl)cc2)c2ccccc12 [Indibulin] | 8.6 | 6.9 | 2.2 | 13.9 | 5.8 | < 0 | 6.5 | 8.8 | 4.2 | 6.4 | 4.5 | 6
24 | CC(C)NC[C@@H](C(=O)N1CCN(c2ncnc3c2[C@H](C)C[C@H]3O)CC1)c1ccc(Cl)cc1 [Ipatasertib] | 4.2 | < 0 | 4.6 | 10.3 | 0.35 | < 0 | 5.5 | 5.9 | 7.5 | < 0 | 1.3 | 0.8
25 | CC(C)C[C@H](NC(=O)CNC(=O)c1cc(Cl)ccc1Cl)B(O)O [Ixazomib] | 13.6 | 5.1 | 2 | 12 | 3.55 | 5 | 19.2 | 13.8 | 16.8 | 13.5 | 7.8 | 17.1
26 | CCNCCS(=O)(=O)NC[C@@]1(c2ccccc2)SC(NC(=O)C(C)(C)C)=NN1C(=O)C(C)(C)C [Litronesib] | 7.8 | 8.2 | 9.3 | 21.2 | 10.7 | 3.1 | 2.8 | 15.2 | 4.3 | 8.5 | 7.7 | 11.2
27 | NC(=O)N1CCC(CC(=O)N2CCC([C@H]3c4ncc(Br)cc4CCc4cc(Cl)cc(Br)c43)CC2)CC1 [Lonafarnib] | 9.45 | 9.4 | 9.9 | 7 | 8.85 | 8.7 | 9.8 | 6.3 | 10 | 5.5 | 9 | 9.3
28 | CCNC(=O)c1noc(-c2cc(C(C)C)c(O)cc2O)c1-c1ccc(CN2CCOCC2)cc1 [Luminespib] | 13.9 | < 0 | 11.3 | 22.8 | 13.7 | 4.1 | 15.3 | 26 | 19 | 15.6 | 12.9 | 14.5
29 | O=C(Nc1cccc(NC(=O)c2cccc(O)c2O)c1)c1cccc(O)c1O [MST-312] | 2.9 | 9.6 | 6.9 | 3.7 | 6.05 | 8.6 | 3.3 | 6.7 | < 0 | 11.6 | 11.5 | 9
30 | CCN(CC)CCCC(C)Nc1c2ccc(Cl)cc2nc2ccc(OC)cc12 (stereo unspecified) [Mepacrine] | 13.6 | 15.2 | 11.7 | 18 | 12.7 | 10.8 | 15.9 | 17.1 | 12.3 | 18.8 | 12.1 | 13.8
31 | S=c1[nH]cnc2nc[nH]c12 [Mercaptopurine] | 3.75 | 0.9 | 7.3 | 2 | 6.45 | 6.8 | < 0 | < 0 | < 0 | 0.1 | < 0 | < 0
32 | CN(Cc1cnc2nc(N)nc(N)c2n1)c1ccc(C(=O)N[C@@H](CCC(=O)O)C(=O)O)cc1 [Methotrexate] | 2.2 | < 0 | 4.6 | < 0 | 0.45 | 1.5 | < 0 | < 0 | < 0 | < 0 | < 0 | < 0
33 | CO[C@@H]1[C@H](N(C)C(=O)c2ccccc2)C[C@H]2O[C@]1(C)n1c3ccccc3c3c4c(c5c6ccccc6n2c5c31)C(=O)NC4 [Midostaurin] | 8.1 | 13.1 | 7.9 | 17.8 | 9 | 8.9 | 7.8 | 15.7 | 10.3 | 13.1 | 10.7 | 5.5
